Reference: US12214006B2, “Traditional chinese medicine ointment for preventing and treating mastitis in dairy cows, and preparation method thereof” (Hunan University of Science and Engineering, priority 2022, dated 2025)
No end group written: not given here.

Key:
dairy cows with mastitis = assay: Therapeutic effect on dairy cows with mastitis (cure judged by sodium hydroxide curdled milk test); type: in vivo; details: ointments applied externally 2 g each time, twice a day for 5 days, control perfused with penicillin 100,000 IU, tested one day after stopping
Text: Fifty dairy cows with mastitis detected by Shanghai Mastitis Test (SMT) are selected from a dairy farm in Hunan Province, of which 20 cows are externally coated with the traditional Chinese medicine ointment for preventing and treating mastitis in dairy cows prepared in embodiment 1 and 20 cows are externally applied with the traditional Chinese medicine ointment for preventing and treating mastitis in dairy cows prepared in comparative example 1, with the dosage of 2 g each time, twice a day for 5 days. The remaining 10 cows are perfused with penicillin 100,000 IU after all the milk is discharged from their breasts, as a control group.
Cure standard: one day after stopping the ointments, if curdled milk is negative by the sodium hydroxide test, the cows are judged to be cured.

Staphylococcus aureus = assay: Filter paper bacteriostatic circle test, Staphylococcus aureus; type: cell-based; details: 20 μL of liquid medicine diluted by 10 times on 6.5 mm filter paper, 37° C., 24 hours
Protocol: (§1) In order to confirm the above conjecture, the application verifies the antibacterial effect of the traditional Chinese medicine concentrated solution prepared in each embodiment, and the method is as follows: • (1) taking Staphylococcus aureus and Escherichia coli grown on ordinary nutrient agar plates, dipping a small number of colonies with an inoculating loop, inoculating colonies into 5 mL of Mueller-Hinton (MH) broth, and performing shake culture at 37° C. for 6 hours at 200 r/min; taking bacterial liquid in logarithmic growth period and diluting the bacterial liquid with sterilized physiological saline until the bacterial content is 1-2×10^8 CFU/ml; diluting with sterilized physiological saline for 1000 times for later use; • (2) making a round filter paper with a diameter of 6.5 mm with a puncher, and dry-heat sterilizing it; first, evenly inoculating the bacterial liquid obtained in step (1) into a nutrient agar culture dish, then attaching the sterilized round filter paper to the surface of agar, transferring 20 μL of liquid medicine (diluted by 10 times) with a micropipette gun, dropping the liquid medicine in the center of the round filter paper, culturing it at 37° C. for 24 hours, and measuring the diameter of the bacteriostatic circle in which different liquid medicines are dropped.

Escherichia coli = assay: Filter paper bacteriostatic circle test, Escherichia coli; type: cell-based; details: 20 μL of liquid medicine diluted by 10 times on 6.5 mm filter paper, 37° C., 24 hours
Protocol: as §1

Substance	Cure rate (%) (dairy cows with mastitis)	Cows (head) with curdled milk being negative by sodium hydroxide test (dairy cows with mastitis; 20, 20 and 10 cows per group)	Diameter of bacteriostatic circle of Staphylococcus aureus (mm) (Staphylococcus aureus)	Diameter of bacteriostatic circle of Escherichia coli (mm) (Escherichia coli)
penicillin [Control group]	80%	8 head		
FFRKVLKLIRKIWR [1 from Hunan University of Science and Engineering, preparation per CN111529683A]			15.3 mm	14.7 mm
